In one test the target is T1, Human recombinant MMP-1 (Homo sapiens, UniProt P03956).
T1 construct: made in house; host or cells: MMP-1-transfected HT-1080 cells (spent media)
T1 sequence (P03956 100-469): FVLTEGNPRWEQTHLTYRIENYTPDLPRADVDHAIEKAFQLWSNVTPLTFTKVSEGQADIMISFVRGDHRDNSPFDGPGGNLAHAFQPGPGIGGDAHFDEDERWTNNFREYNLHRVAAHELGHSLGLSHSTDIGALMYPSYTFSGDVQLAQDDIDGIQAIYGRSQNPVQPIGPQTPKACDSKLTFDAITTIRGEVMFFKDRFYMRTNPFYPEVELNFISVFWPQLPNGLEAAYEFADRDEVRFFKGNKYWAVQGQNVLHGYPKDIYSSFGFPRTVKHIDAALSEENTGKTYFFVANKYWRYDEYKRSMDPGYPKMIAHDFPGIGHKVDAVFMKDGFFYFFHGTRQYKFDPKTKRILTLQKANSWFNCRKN
Briefly: In vitro MMP inhibition analysis (fluorogenic peptide substrate cleavage), Ki. Format: biochemical. Here is the method: (§1) Several compounds and salts were analyzed in an in vitro assay to determine their ability to inhibit the MMP cleavage of peptide substrates. Inhibition constant (Ki) were calculated from the assayed compound-MMP interactions.
(§2) Human recombinant MMP-1, MMP-2, MMP-9, MMP-13, and MMP-14 were used in this assay. All enzymes were prepared in Assignee's laboratories following usual laboratory procedures. Protocols for the preparation and use of these enzymes are available in the scientific literature. See, e.g., Enzyme Nomenclature (Academic Press, San Diego, Calif., 1992) (and the citations therein). See also, Frije et al., J. Biol. Chem., 26(24), 16766-73 (1994).
The MMP-1 proenzyme was purified from the spent media of MMP-1-transfected HT-1080 cells provided by Dr. Harold Welgus of Washington University (St. Louis, Mo.). The protein was purified on a zinc chelating column.
(§3) All MMPs were activated using 4-aminophenylmercuric acetate (“APMA”, Sigma Chemical, St. Louis, Mo.) or trypsin. MMP-9 also was activated using human recombinant MMP-3 (purified in Assignee's laboratory following standard cloning and purification techniques).
(§4) The following fluorogenic, methoxycoumarin-containing polypeptide substrate (I) was used in the MMP inhibition assays: MCA-ArgProLeuGlyLeuDpaAlaArgGluArgNH2 (I) “MCA” is 7-methoxycoumarin-4-yl acetyl. Substrate (I) was prepared Assignee's laboratory. In the absence of MMP inhibitory activity, the substrate is cleaved at the Gly-Leu peptide bond. This cleavage separates the highly fluorogenic peptide from the 2,4-dinitrophenyl quencher, thus resulting in increase of fluorescent intensity.
(§5) The stock solutions of the assayed compounds and salts were prepared in […] (DMSO). These stock solutions were diluted in Buffer A (100 mM Tris-HCl, 100 mM NaCl, 10 mM CaCl2, 0.05% polyoxyethylene 23 lauryl ether, pH 7.5) to obtain solutions with different compound concentrations, i.e., assay solutions with different concentrations of the assayed […] compound. The experiment controls contained the same amount of Buffer A/DMSO as the assayed sample, but contained none of the tested compound or salt.
(§6) The assays from which the Ki determinations were made were performed as follows. The assayed compound samples were incubated in separate wells of untreated white polystyrene plates (Nunc Nalgene International, Rochester, N.Y.), and analyzed on a Tecan SpectraFlour Plus plate reader. The excitation wavelength was 330 nm, and the emission wavelength—420 nm. All samples (assayed compounds and controls) were incubated in separate plate wells at room temperature for 1 hr in the presence of 4 μM of MMP substrate (I). In the absence of MMP inhibitory activity, substrate (I) was cleaved at the Gly-Leu bond resulting in an increase of relative fluorescence. Inhibition was observed as a reduced rate of this increase in relative fluorescence. […] This protocol is a modification of method by Knight et al., FEBS Lett., 296(3), 263-266 (1992). Apparent inhibitory constants were determined by non-linear regression of reaction velocity as a function of inhibitor and enzyme concentration using Morrison's equation, as described by Kuzmic, Anal. Biochem. 286, 45-50 (2000). Modifications were made in the non-linear regression method to allow a common control reaction rate and effective enzyme concentration to be shared between all dose-response relationships on a given assay plate. Since the substrate concentration was chosen to be at or below the Km, the apparent Ki's from this analysis were reported as Ki's without correction for the influence of substrate.
The above protocols were used to determine Ki constants for the compounds in Examples 2-35 above. All Ki values in Table 1 are given in nM units.

The target in a further test is T2, Human recombinant MMP-13 (Homo sapiens, UniProt P45452).
T2 construct: made in house; host or cells: baculovirus / insect cells
The test is described as above. Format: biochemical. Here is the method: as §1, §2
The MMP-13 was obtained as a proenzyme from a full-length cDNA clone using baculovirus, as described by V. A. Luckow, “Insect Cell Expression Technology,” Protein Engineering: Principles and Practice, pp. 183-218 (edited by J. L. Cleland et al., Wiley-Liss, Inc., 1996). The expressed proenzyme was first purified over a heparin agarose column, and then over a chelating zinc chloride column. The proenzyme was then activated by APMA for use in the assay. Further details on baculovirus expression systems may be found in, for example, Luckow et al., J. Virol., 67, 4566-79 (1993). See also, O'Reilly et al, Baculovirus Expression Vectors: A Laboratory Manual (W.H. Freeman and Co., New York, N.Y., 1992). See also, King et al., The Baculovirus Expression System: A Laboratory Guide (Chapman & Hall, London, England, 1992).
as §3, §4, §5
as §6, with “Modifications were made in the non-linear regression method to allow a common control reaction rate and effective enzyme concentration to be shared between all dose-response relationships on a given assay plate. Since the substrate concentration was chosen to be at or below the Km, the apparent Ki's from this analysis were reported as Ki's without correction for the influence of substrate.” left out

Consider 28 compounds from US20060074243A1, “Hydroxamic acid and amide compounds and their use as protease inhibitors” (Pharmacia Corporation, priority 2002, published 2006).

Molecules are shown by their SMILES.

As to `CCN1CCC(C(=O)NO)(S(=O)(=O)c2ccc(-c3ccc(CCC(C)(F)F)cc3)cc2)CC1` [Example 61], the Ki worked out at 3040 nM on Human recombinant MMP-1 (Table 1) and 0.02 nM on Human recombinant MMP-13 (Table 1).

Consider `O=C(NO)C1(S(=O)(=O)c2ccc(-c3cnc(NCC4CC4)cn3)cc2)CCOCC1` [Example 128], for which the Ki is more than 2500 nM on Human recombinant MMP-1 (Table 2) and 3.4 nM on Human recombinant MMP-13 (Table 2).

With `COCCN1CCC(C(=O)NO)(S(=O)(=O)c2ccc(-c3ccc(CCCC(F)(F)F)cn3)cc2)CC1` [Example 54], the figures for the Ki on Human recombinant MMP-1 (Table 1) and at Human recombinant MMP-13 (Table 1) were 6370 nM and 0.3 nM, respectively.

On to `O=C(NO)C1(S(=O)(=O)c2ccc(-c3ncc(CCC(F)(F)C(F)(F)F)cn3)cc2)CCOCC1` [Example 137], for which the results for the Ki at Human recombinant MMP-1 (Table 2) and at Human recombinant MMP-13 (Table 2) were more than 10000 nM and 0.17 nM, respectively.

With `O=C(NO)C1(S(=O)(=O)c2ccc(-c3ccc(-n4cncn4)cc3)cc2)CCOCC1` [Example 126], the Ki came to 1240 nM on Human recombinant MMP-1 (Table 2) and 0.048 nM at Human recombinant MMP-13 (Table 2).

On to `CCN1CCC(C(=O)NO)(S(=O)(=O)c2ccc(-c3ccc(CCC(F)(F)C(F)(F)F)cn3)cc2)CC1` [Example 52], for which the Ki at Human recombinant MMP-1 (Table 1) is more than 10000 nM; at Human recombinant MMP-13 (Table 1) it was 0.07 nM.

Consider `COCCC(C(=O)NO)S(=O)(=O)c1ccc(-c2ccc(CCCC(F)(F)F)cc2)cc1` (centres unmarked) [Example 47], for which the values for the Ki at Human recombinant MMP-1 (Table 1) and on Human recombinant MMP-13 (Table 1) were more than 10000 nM and 0.4 nM, respectively.

Regarding `O=C(NO)C1(S(=O)(=O)c2ccc(-c3ccc(OCCCC(F)(F)F)cc3)cc2)CCOCC1` [Example 74], the Ki was determined as 1630 nM at Human recombinant MMP-1 (Table 2) and 0.102 nM on Human recombinant MMP-13 (Table 2).

As to `O=CN1CCC(C(=O)NO)(S(=O)(=O)c2ccc(-c3ccc(CCCC(F)(F)F)cn3)cc2)CC1` [Example 159], the Ki at Human recombinant MMP-1 (Table 2) was 3480 nM; at Human recombinant MMP-13 (Table 2) it was 0.02 nM.

In the case of `O=C(NO)C1(S(=O)(=O)c2ccc(-c3cnc(N4CCCCC4)cn3)cc2)CCOCC1` [Example 131], the Ki on Human recombinant MMP-1 (Table 2) was more than 10000 nM; at Human recombinant MMP-13 (Table 2) it was 2.04 nM.

Take `COCCN1CCC(C(=O)NO)(S(=O)(=O)c2ccc(-c3ccc(-c4ccccc4)cc3)cc2)CC1` [Example 152]: the Ki came to 842 nM on Human recombinant MMP-1 (Table 2) and 0.05 nM on Human recombinant MMP-13 (Table 2).

Consider `O=C(NO)C1(S(=O)(=O)c2ccc(-c3ccc(CCC(F)(F)C(F)(F)F)cn3)cc2)CCN(C2CC2)CC1` [Example 50], for which the Ki amounted to 7880 nM at Human recombinant MMP-1 (Table 1) and 0.12 nM at Human recombinant MMP-13 (Table 1).

On to `CC(F)(F)CCc1cnc(-c2ccc(S(=O)(=O)C3(C(=O)NO)CCN(C4CC4)CC3)cc2)cn1` [Example 66], for which the Ki was more than 10000 nM at Human recombinant MMP-1 (Table 1) and 0.23 nM at Human recombinant MMP-13 (Table 1).

For `O=C(NO)C1(S(=O)(=O)c2ccc(-c3ccc(OC(F)(F)C(F)F)cc3)cc2)CCOCC1` [Example 68], the results for the Ki on Human recombinant MMP-1 (Table 1) and at Human recombinant MMP-13 (Table 1) were 231 nM and 0.0509 nM, respectively.

Regarding `CCN1CCC(C(=O)NO)(S(=O)(=O)c2ccc(-c3noc(-c4ccc(F)cc4)n3)cc2)CC1` [Example 147], the Ki is more than 10000 nM on Human recombinant MMP-1 (Table 2) and 2.59 nM on Human recombinant MMP-13 (Table 2).

With `O=C(NO)C1(S(=O)(=O)c2ccc(-c3ccc(-c4ccncc4)cc3)cc2)CCOCC1` [Example 141], the Ki at Human recombinant MMP-1 (Table 2) was found to be 257 nM; on Human recombinant MMP-13 (Table 2), 0.012 nM.

As for `O=C(NO)C1(S(=O)(=O)c2ccc(-c3cnc(CCC(F)(F)F)cn3)cc2)CCOCC1` [Example 62], the figures for the Ki at Human recombinant MMP-1 (Table 1) and at Human recombinant MMP-13 (Table 1) were more than 10000 nM and 0.45 nM, respectively.

Take `CC(F)(F)CCc1cnc(-c2ccc(S(=O)(=O)C3(C(=O)NO)CCOCC3)cc2)cn1` [Example 60]: the Ki on Human recombinant MMP-1 (Table 1) is more than 10000 nM; on Human recombinant MMP-13 (Table 1), 0.212 nM.

In the case of `O=C(NO)C1(S(=O)(=O)c2ccc(-c3ccc(OC(F)(F)C(F)F)cc3)cc2)CCN(CCl)CC1` [Example 38], the Ki stood at 650 nM at Human recombinant MMP-1 (Table 1) and 0.02 nM at Human recombinant MMP-13 (Table 1).

On to `COCCN1CCC(C(=O)NO)(S(=O)(=O)c2ccc(-c3ccc(OC(F)(F)C(F)F)cc3)cc2)CC1` [Example 39], for which the Ki was found to be 335 nM at Human recombinant MMP-1 (Table 1) and 0.011 nM at Human recombinant MMP-13 (Table 1).

Turning to `COCCN1CCC(C(=O)NO)(S(=O)(=O)c2ccc(-c3ccc(CCC(C)(F)F)cn3)cc2)CC1` [Example 67], the Ki on Human recombinant MMP-1 (Table 1) was found to be 8470 nM; at Human recombinant MMP-13 (Table 1), 0.07 nM.

Take `CCN1CCC(C(=O)NO)(S(=O)(=O)c2ccc(-c3ccc(OCCCCO)cc3)cc2)CC1` [Example 118]: the Ki on Human recombinant MMP-1 (Table 2) came to 2170 nM; at Human recombinant MMP-13 (Table 2), 0.012 nM.

As for `O=C(NO)C1(S(=O)(=O)c2ccc(-c3cnc(CCCC(F)(F)F)cn3)cc2)CCOCC1` [Example 58], the Ki was more than 10000 nM at Human recombinant MMP-1 (Table 1) and 0.45 nM on Human recombinant MMP-13 (Table 1).

Consider `CCOCCOc1ccc(-c2ccc(S(=O)(=O)C3(C(=O)NO)CCOCC3)cc2)cc1` [Example 37], for which the Ki is 1450 nM on Human recombinant MMP-1 (Table 1) and 0.028 nM at Human recombinant MMP-13 (Table 1).

As for `O=C(NO)C1(S(=O)(=O)c2ccc(-c3ccc(-c4ccccc4F)cn3)cc2)CCN(C2CC2)CC1` [Example 150], the Ki came out at 1500 nM on Human recombinant MMP-1 (Table 2) and 0.12 nM on Human recombinant MMP-13 (Table 2).

As to `CCc1cnc(-c2ccc(S(=O)(=O)C3(C(=O)NO)CCOCC3)cc2)nc1` [Example 122], the Ki on Human recombinant MMP-1 (Table 2) worked out at 3580 nM; at Human recombinant MMP-13 (Table 2) it was 1.56 nM.

In the case of `COCCN1CCC(C(=O)NO)(S(=O)(=O)c2ccc(-c3ccc(CCCC(F)(F)F)cc3)cc2)CC1` [Example 43], the figures for the Ki at Human recombinant MMP-1 (Table 1) and on Human recombinant MMP-13 (Table 1) were 6870 nM and 0.06 nM, respectively.

For `O=C(NO)C1(S(=O)(=O)c2ccc(-c3ccc(-c4ccccc4)cc3)cc2)CCN(C2CC2)CC1` [Example 153], the Ki was found to be 1310 nM on Human recombinant MMP-1 (Table 2) and 0.15 nM on Human recombinant MMP-13 (Table 2).
